# In patent US20090305954A1, “HISTIDINE-CONTAINING DIASTEREOMERIC PEPTIDES AND USES THEREOF” (Yeda Research and Development Co. Ltd., priority 2005, published 2009):
# Square brackets hold non-standard residues; d marks the D form. Peptide text beside a SMILES is read from it.
# Legend:
# [1] = tested on: MDA-MB-231 breast tumor metastases in lymph nodes and lungs; test: Inhibition of formation of lung and lymph node metastases derived from breast cancer; assay type: in vivo, SCID/NCr mice
# Description: Monitoring of solid metastases derived for breast tumor was done by in vivo fluorescence using IVIS as described above in (iii). At the end of the treatment (day 38), the mice were killed, and the lungs and lymph nodes were removed and monitored for fluorescence of metastases derived from the breast cancer. For metastases quantification, the lungs and right lymph nodes were excised and fixed in 4% buffered formaldehyde. Paraffin-embedded 5-μm sections were stained with H&E. The percentage of metastatic cell area of total section area was calculated using the Image-Pro plus 4.1 software. The dissected lungs and lymph nodes were analyzed by histology. […] Metastasis quantification was done according to areas from three different sections of each organ (P<0.005).
# [2] = tested on: AI CL1 human PC cells xenograft; test: Inhibition of tumor growth in human prostate cancer xenografts, CL1; assay type: in vivo, nude male mice
# Protocol: (i) Inhibition of tumor growth in human prostate cancer xenografts. Subcutaneouse (s.c.) implantation of human PC cells in mice was done as previously described in Gavish et al. (Gavish et al. 2002). Briefly, 0.1 ml AI CL1 or 22RV1 human PC cells (5×10^6 cells) in Matrigel were inoculated s.c. into the dorsal side of five to six week-old nude male mice weighing 20-25 g (Harlen Co., Israel). Two weeks after cell implantation, when the tumors diameter reached ≧5 mm (denoted as day 1), the diastereomer 13 and its all L-amino acid analog peptide (at 1 mg/kg, 0.1 mM), or vehicle (PBS, pH=7.4) were injected intratumorally (dosing volume of 2.5 ml/kg) three times a week for a total of 9 doses. Tumor size was measured by a caliper and recorded twice a week during a period of 28 days. Mice were weighed and tumor weight (mg) was estimated by using the formula of length×width×depth×0.52 in mm^3, assuming the specific gravity to be 1. At the end of the treatment, the mice were killed, and the tumors were removed, photographed, and weighed. The animal experimentation was conducted according to the rules of the Institutional Animal Care and Use Committee.
# [3] = tested on: RFP-MDA-MB-231 breast cancer (BC) cells xenograft; test: Inhibition of tumor growth in breast cancer xenografts; assay type: in vivo, female SCID/NCr mice
# Protocol: RFP-MDA-MB-231 breast cancer (BC) cells were injected (5×10^6 cells in 0.1 ml PBS) into the left mammary fat pad of 8-week-old female SCID/NCr mice (NCI, USA) as previously described ([…] et al., 2004). […] Mice were weighed and tumor volume was measured by a caliper (expressed in weight units (mg) (Papo et al., 2003) twice a week for a period of 45 days. Monitoring of solid breast tumor and its derived metastases was done by in vivo fluorescence. Tumor fluorescence intensity was monitored in real time by using in vivo optical imaging system (IVIS) and was recorded once a week during the period of 38 days.
# [4] = Interaction with Matrigel matrix, analysed by RP-HPLC and mass spectroscopy; assay type: in vitro ADME; settings: mixed with Matrigel matrix for one hour
# [5] = Acute toxicity test in mice (intravenous); assay type: in vivo; settings: for mortality: mice, i.v., one dose per day for 2 days
# Protocol: Acute toxicity of peptides 1, 13 and 16 was examined by intravenously injecting mice (n=3), each with one dose per day for 2 days of 0.5 ml solution containing peptides 1, 13 or 16 at 3, 9, 15, 20 and 30 mg/kg of body weight.
# A week after injecting the peptides, blood samples were taken from the survived mice. […] Thus, the peptides 13 and 16 of the invention are not toxic even when administered at concentrations considerably higher than those necessary for their anticancer activity.
# [6] = 5 mg/kg systemically, three times a week, 9 doses
structure (smiles),measurement,setting,value
CC(C)C[C@H](NC(=O)[C@H](CC(C)C)NC(=O)[C@@H](CCCCN)NC(=O)[C@H](CC(C)C)NC(=O)[C@H](CC(C)C)NC(=O)[C@H](Cc1c[nH]cn1)NC(=O)[C@@H](CCCCN)NC(=O)[C@@H](CC(C)C)NC(=O)[C@H](CC(C)C)NC(=O)[C@@H](CCCCN)NC(=O)[C@H](Cc1c[nH]cn1)NC(=O)[C@H](CC(C)C)NC(=O)[C@@H](CC(C)C)NC(=O)[C@H](CCCCN)NC(=O)[C@@H](N)CC(C)C)C(N)=O [Peptide 13] (H-LK[dL]LH[dK]L[dL][dK]HLL[dK]LL-NH2),lymph node metastasis fluorescence intensity,[1]; systemic administration,significant reduction
same,histology of lungs and lymph nodes: population by cancer cells,"[1]; vs control untreated mice, P<0.005",much less densely populated
same,tumor weight,"[2]; CL1 xenograft, 1 mg/kg intratumorally, 9 doses",significant reduction
same,body weight of the animals compared with vehicle-treated control group,"[2]; prostate cancer xenografts (CL1, 22RV1)",increase
same,tumor fluorescence (IVIS),[3]; [6],marked lowering
same,tumor size (caliper measurements),[3]; [6],major reduction
same,body weight of the animals compared with vehicle-treated control group,"[3]; mouse, in vivo",increase
same,condition of animals,[3]; throughout the assay period,good condition
same,activity preserved upon interaction with the Matrigel matrix,[4],~50%
same,mortality,[5]; 3 mg/kg,No mortality
same,mortality,[5]; 9 mg/kg,No mortality
same,mortality,[5]; 15 mg/kg,no mortality
same,mortality,[5]; 20 mg/kg,no mortality
same,blood differential and biochemistry tests,"[5]; survived mice, a week after injection",in the range of normal values
